Laboratory results from US5856347A, “Antibacterial preparation or bactericide comprising 2-aminothiazole derivative and/or salt thereof” (Hisamitsu Pharmaceutical Co., Inc., priority 1994, dated 1999).

Columns and labels:
Format in all cases: cell-based
[1] = test system: Staphylococcus aureus tolerant to GM; assay: Antibacterial activity against GM-tolerant Staphylococcus aureus; settings: S. aureus tolerant to GM
Procedure: (§1) Antibacterial Activity Against GM-Sensitive and Tolerant Strains of Staphylococcus aureus and Staphylococcus epidermidis
(§2) One platinum loop of each test strain on a slant culture medium was inoculated into 10 ml of a growing medium (Trypto-Soya Broth manufactured by Nussui Pharmaceutical Co., Ltd.) and cultured at 37° C. for 18 to 20 hr. The thus obtained cultures were each diluted to obtain suspensions of about 10^7 cells/ml which were later used as a bacteria suspension for inoculation.
(§3) About 10 mg of compound No. 9 were weighed out and dissolved in such an amount of DMSO as to obtain a solution having a concentration of 10 mg/ml. Separately, about 400 mg of Gentamicin sulfate (GM) were weighed out and dissolved in distilled water to obtain a solution having a concentration of 409.6 mg/ml.
(§4) Each of the sample solutions thus prepared was added to a liquid medium (broth for determination of sensitivity, manufactured by Nussui Pharmaceutical Co., Ltd.) to obtain a liquid medium containing compound No. 9 in a concentration of 128 μg/ml or GM in a concentration of 4096 μg/ml. Further, each sample-containing medium so obtained was subjected to stepwise two-fold dilutions on a microplate with wells each containing […] of the above medium (compound No. 9: 128 to 1 μg/ml, GM: 4096 to 1 μg/ml). […]

Staphylococcus aureus = assay: Acquisition of tolerance in Staphylococcus aureus (serial passages)
Procedure: (§5) Acquisition of Tolerance in Staphylococcus aureus and Staphylococcus epidermidis
(§6) One platinum loop of each test strain on a slant culture medium was inoculated into 10 ml of a growing medium (Trypto-Soya Broth manufactured by Nussui Pharmaceutical Co., Ltd.) and cultured at 37° C. for 18 to 20 hr. The thus obtained cultures were each diluted to obtain suspensions of about 10^8 cells/ml which were later used as a bacteria suspension for inoculation.
(§7) About 10 mg of compound No. 9 were weighed out and dissolved in such an amount of DMSO as to obtain a solution having a concentration of 12.8 mg/ml, after which the solution so obtained was subjected to stepwise two-fold dilutions with DMSO (12.8 to 0.1 mg/ml).
(§8) Separately, about 400 mg of Gentamicin sulfate (GM) were weighed and dissolved in distilled water to obtain a solution having a concentration of 409.6 mg/ml, after which the solution so obtained was subjected to stepwise two-fold dilutions with distilled water to prepare control medicinal solutions for comparison (409.6 to 0.1 mg/ml).
(§9) Each of the sample solutions thus obtained by the stepwise dilutions was added to a liquid medium (Trypto-Soya Broth manufactured by Nussui Pharmaceutical Co., Ltd.) in an amount of 0.01 volume thereof.
(§10) Each of the bacteria suspensions for inoculation was added to each of the sample-containing liquid media so prepared in an amount of 0.01. volume (about 10^6 cells/ml) of the liquid medium, and the bacteria were cultured at 37° C. for 2 to 4 days. Thereafter, the growth of bacteria was observed.

[2] = test system: Staphylococcus epidermidis; assay: Acquisition of tolerance in Staphylococcus epidermidis (serial passages)
Procedure: as §5, §6, §7, §8, §9, §10

[3] = test system: Staphylococcus epidermidis tolerant to GM; assay: Antibacterial activity against GM-tolerant Staphylococcus epidermidis; settings: S. epidermidis tolerant to GM
Procedure: as §1, §2, §3, §4

[4] = test system: Streptococcus agalactiae: IID 1624; assay: Antibacterial activity against Streptococcus agalactiae: IID 1624 (MIC); settings: Streptococcus agalactiae IID 1624, 37° C., 18 to 20 hr
Procedure: (§11) Antibacterial Activity Against Gram-positive Bacteria
(§12) One platinum loop (oese) of a test strain on a slant culture medium was inoculated into 10 ml of each growing medium (for aerobic bacteria: Trypto-Soya Broth manufactured by Nussui Pharmaceutical Co., Ltd., for anaerobic bacteria: GAM Broth manufactured by Nussui Pharmaceutical Co., Ltd.) and cultured at. 37° C. for 18 to 20 hr. The cultures thus obtained were each diluted to obtain suspensions of about 10^7 cells/ml which were later used as a bacteria suspension for inoculation.
(§13) About 10 mg of each sample were weighed out and dissolved in such an amount of DMSO (dimethylsulfoxide) as to obtain sample solutions having a concentration of 10 mg/ml.
(§14) The sample solutions thus prepared were each added to each liquid medium (for aerobic bacteria: broth for determination of sensitivity, manufactured by Nussui Pharmaceutical Co., Ltd., for anaerobic bacteria: GAM Broth manufactured by Nussui Pharmaceutical Co., Ltd.) to obtain sample-containing medium solutions having a concentration of 128 μg/ml. Further, the thus obtained solutions were each subjected to progressive or stepwise two-fold dilutions on a microplate with wells each containing […] of the above medium (until various concentrations in a range from 128 down to 0.063 μg/ml were obtained). […]

[5] = test system: Staphylococcus epidermidis sensitive to GM; assay: Antibacterial activity against GM-sensitive Staphylococcus epidermidis; settings: S. epidermidis sensitive to GM, 37° C., 4 days
Procedure: as §1, §2, §3, §4

[6] = test system: Staphylococcus aureus: IFO 13276; assay: Bactericidal activity against Staphylococcus aureus: IFO 13276 (MCC); settings: S. aureus IFO 13276, 37° C., 18 to 20 hr, bactericidal (Table 8)
Procedure: (§15) Bactericidal Activity Against Gram-Positive Bacteria
(§16) One platinum loop of each test strain on a slant culture medium was inoculated into 10 ml of each growing medium (for aerobic bacteria: Trypto-Soya Broth manufactured by Nussui Pharmaceutical Co., Ltd., for anaerobic bacteria: GAM Broth manufactured by Nussui Pharmaceutical Co., Ltd.) and cultured at 37° C. for 18 to 20 hr. The thus obtained cultures were each diluted to obtain suspensions of about 10^7 cells/ml which were later used as a bacteria suspension for inoculation.
(§17) About 10 mg of each sample were weighed out and dissolved in such an amount of DMSO (dimethylsulfoxide) as to obtain solutions having a concentration of 10 mg/ml.
(§18) The sample solutions thus prepared were each added to each liquid medium (for aerobic bacteria: broth for determination of sensitivity, manufactured by Nussui Pharmaceutical Co., Ltd., for anaerobic bacteria: GAM Broth manufactured by Nussui Pharmaceutical Co., Ltd.) to obtain sample-containing medium solutions having a concentration of 128 μg/ml. […]
(§19) 5 μl of each bacteria suspension for inoculation were placed in each of the sample-containing liquid media so prepared, and the bacteria were cultured at 37° C. for 18 to 20 hr. […] The minimum concentrations of the samples, which have been judged to kill bacteria, are expressed as MCC (Minimum Cidal Concentration) in μg/ml. […]

[7] = test system: Streptococcus pyogenes: IID 698; assay: Antibacterial activity against Streptococcus pyogenes: IID 698 (MIC); settings: Streptococcus pyogenes IID 698, 37° C., 18 to 20 hr
Procedure: as §11, §12, §13, §14

[8] = test system: Escherichia coli: IFO 3972; assay: Antibacterial activity against Gram-negative bacteria, Escherichia coli: IFO 3972 (MIC)
Procedure: Antibacterial Activity Against Gram-Negative Bacteria The procedure was performed in the same manner as Experiment Example 1.

[9] = test system: Propionibacterium acnes: Clinical isolated No. 3; assay: Bactericidal activity against Propionibacterium acnes: Clinical isolated No. 3 (MCC); settings: P. acnes clinical isolated No. 3, 37° C., 18 to 20 hr, bactericidal (Table 9)
Procedure: as §15, §16, §17, §18, §19

[10] = test system: Staphylococcus aureus: IFO 13276; assay: Antibacterial activity against Staphylococcus aureus: IFO 13276 (MIC, liquid dilution); settings: S. aureus IFO 13276, 37° C., 18 to 20 hr (Table 2)
Procedure: as §11, §12, §13, §14

[11] = test system: Staphylococcus aureus sensitive to GM; assay: Antibacterial activity against GM-sensitive Staphylococcus aureus; settings: S. aureus sensitive to GM, 37° C., 4 days
Procedure: as §1, §2, §3, §4

[12] = test system: Staphylococcus epidermidis: IFO 12993; assay: Bactericidal activity against Staphylococcus epidermidis: IFO 12993 (MCC); settings: S. epidermidis IFO 12993, 37° C., 18 to 20 hr, bactericidal (Table 9)
Procedure: as §15, §16, §17, §18, §19

[13] = test system: Propionibacterium acnes: Clinical isolated No. 3; assay: Antibacterial activity against Propionibacterium acnes: Clinical isolated No. 3 (MIC); settings: Propionibacterium acnes clinical isolated No. 3, GAM Broth, 37° C., 18 to 20 hr
Procedure: as §11, §12, §13, §14

[14] = test system: Staphylococcus epidermidis: IFO 12993; assay: Antibacterial activity against Staphylococcus epidermidis: IFO 12993 (MIC); settings: Staphylococcus epidermidis IFO 12993, 37° C., 18 to 20 hr
Procedure: as §11, §12, §13, §14

[15] = test system: Bacillus subtilis: IFO 3134; assay: Antibacterial activity against Bacillus subtilis: IFO 3134 (MIC); settings: Bacillus subtilis IFO 3134, 37° C., 18 to 20 hr
Procedure: as §11, §12, §13, §14

## COc1ccc(-c2nc(NS(=O)(=O)C(F)(F)F)sc2-c2ccccc2)cc1 [compound 9]
[1]
  antibacterial activity and bactericidal activity compared with GM-sensitive strains: equally powerful to those against the strains sensitive to Gentamicin sulfate (GM)
Staphylococcus aureus; 10 passages
  acquisition of tolerance: did not induce bacterial tolerance until 10 passages
  increase in MIC due to passages: neither of the strains caused a significant increase in MIC
[2]; 18 passages
  acquisition of tolerance: did not induce the tolerance until 18 passages
  increase in MIC due to passages: neither of the strains caused a significant increase in MIC
[3]
  antibacterial activity and bactericidal activity compared with GM-sensitive strains: equally powerful to those against the strains sensitive to Gentamicin sulfate (GM)

## Gentamicin sulfate [GM]
[4]
  MIC (Minimum Inhibitory Concentration): 16 µg/mL
[5]
  MIC (Minimum Inhibitory Concentration): 0.5 µg/mL
[6]
  MCC (Minimum Cidal Concentration), column head prints MIC: 128 µg/mL
[7]
  MIC (Minimum Inhibitory Concentration): 2 µg/mL
[8]
  MIC (Minimum Inhibitory Concentration): 2 µg/mL
[1]; 37° C., 4 days
  MIC (Minimum Inhibitory Concentration): 2048 µg/mL
Staphylococcus aureus; 10 passages
  acquisition of tolerance: highly induced the tolerance
Staphylococcus aureus; 10 passages in medium containing GM
  MIC after passages: about 1000 μg/ml
[2]; 18 passages
  acquisition of tolerance: highly induced the tolerance
[2]; 18 passages in medium containing GM
  MIC after passages: about 1000 μg/ml
[9]
  MCC (Minimum Cidal Concentration), column head prints MIC: 64 µg/mL
[10]
  MIC (Minimum Inhibitory Concentration): 2 µg/mL
[3]; 37° C., 4 days
  MIC (Minimum Inhibitory Concentration): 1024 µg/mL
[11]
  MIC (Minimum Inhibitory Concentration): 2 µg/mL
[12]
  MCC (Minimum Cidal Concentration), column head prints MIC: 64 µg/mL
[13]
  MIC (Minimum Inhibitory Concentration): 32 µg/mL
[14]
  MIC (Minimum Inhibitory Concentration): 0.5 µg/mL
[15]
  MIC (Minimum Inhibitory Concentration): 0.25 µg/mL
